Measured values taken from ChEMBL document CHEMBL4613209, “Quinolone hybrids and their anti-cancer activities: An overview” (Eur J Med Chem, 2019).

Columns and labels:
SMMC-7721 [1] = test: Cytotoxicity against human SMMC7721 cells assessed as reduction in cell viability; type: functional, cell-based
L1210 [2] = test: Cytotoxicity against mouse L1210 cells assessed as reduction in cell viability; type: functional, cell-based
HL-60 [3] = test: Cytotoxicity against human HL60 cells assessed as reduction in cell viability; type: functional, cell-based
Hep 3B2 = test: Cytotoxicity against human Hep3B cells assessed as reduction in cell viability; type: functional, cell-based
CAPAN-1 = test: Cytotoxicity against human Capan1 cells assessed as reduction in cell viability; type: functional, cell-based
U-251 = test: Cytotoxicity against human U251 cells assessed as reduction in cell viability by SRB assay; type: functional, cell-based
HCT-116 = test: Cytotoxicity against human HCT116 cells assessed as reduction in cell viability by SRB assay; type: functional, cell-based
NCI-H460 = test: Cytotoxicity against human NCI-H460 cells assessed as reduction in cell viability by SRB assay; type: functional, cell-based
PC-3 = test: Antiproliferative activity against human PC3 cells by CCK8 assay; type: functional, cell-based
MCF7 = test: Antiproliferative activity against human MCF7 cells by CCK8 assay; type: functional, cell-based
HeLa = test: Antiproliferative activity against human HeLa cells by CCK8 assay; type: functional, cell-based
A549 = test: Antiproliferative activity against human A549 cells by CCK8 assay; type: functional, cell-based
MCF-10A = test: Antiproliferative activity against human MCF10A cells by CCK8 assay; type: cell-based
HepG2 = test: Antiproliferative activity against human HepG2 cells by CCK8 assay; type: functional, cell-based
SMMC-7721 [4] = test: Antiproliferative activity against human SMMC7721 cells by MTT assay; type: functional, cell-based
L1210 [5] = test: Antiproliferative activity against mouse L1210 cells by MTT assay; type: functional, cell-based
HL-60 [6] = test: Antiproliferative activity against human HL60 cells by MTT assay; type: functional, cell-based

Structure (SMILES) | IC50 (SMMC-7721 [1]) [µM] | IC50 (L1210 [2]) [µM] | IC50 (HL-60 [3]) [µM] | IC50 (Hep 3B2) [µM] | IC50 (CAPAN-1) [µM] | also measured
CCn1cc(-c2nnc(SC/C(=N/NC(N)=S)c3ccc([N+](=O)[O-])cc3)[nH]2)c(=O)c2cc(F)c(N3CCN(C)CC3)cc21 | 2.7 to 27.6 | 2.7 to 27.6 | 2.7 to 27.6 |  |  | 
CN1CCN(c2cc3c(cc2F)c(=O)c(-c2nc4s/c(=C\c5ccc(C#N)cc5)c(=O)n4n2)cn3C2CC2)CC1 |  |  | > 10 | > 10 | > 10 | 
CCn1cc(-c2nnc(SC/C(=N/NC(N)=S)c3ccc(OC)c(OC)c3)[nH]2)c(=O)c2cc(F)c(N3CCN(C)CC3)cc21 | 2.7 to 27.6 | 2.7 to 27.6 | 2.7 to 27.6 |  |  | 
CCn1cc(-c2nnc(SC/C(=N/NC(N)=S)c3ccc4c(c3)OCO4)[nH]2)c(=O)c2cc(F)c(N3CCN(C)CC3)cc21 | 2.7 to 27.6 | 2.7 to 27.6 | 2.7 to 27.6 |  |  | 
O=c1[nH]c2ccccc2c2nn(-c3ccccc3)c(-c3cn(-c4ccccc4)nc3-c3ccccc3)c12 |  |  |  |  |  | IC50 (U-251): 0.16 to 0.3 µM; IC50 (HCT-116): 0.16 to 0.3 µM; IC50 (NCI-H460): 0.16 to 0.3 µM
CCn1cc(C(=O)O)c(=O)c2cc(F)c(N3CCN(C)CC3)cc21 [PEFLOXACIN] | > 100 | > 100 | > 100 |  |  | 
CN1CCN(c2cc3c(cc2F)c(=O)c(-c2nc4s/c(=C\c5cccc(C#N)c5)c(=O)n4n2)cn3C2CC2)CC1 |  |  | > 10 | > 10 | > 10 | 
CN1CCN(c2cc3c(cc2F)c(=O)c(-c2nc4s/c(=C\c5ccc(Cl)cc5)c(=O)n4n2)cn3C2CC2)CC1 |  |  | > 10 | > 10 | > 10 | 
CCn1cc(-c2nnc(SC/C(=N/NC(N)=S)c3ccc(Cl)cc3)[nH]2)c(=O)c2cc(F)c(N3CCN(C)CC3)cc21 | 2.7 to 27.6 | 2.7 to 27.6 | 2.7 to 27.6 |  |  | 
CCn1cc(-c2nnc(SC/C(=N/NC(N)=S)c3ccc(O)cc3)[nH]2)c(=O)c2cc(F)c(N3CCN(C)CC3)cc21 | 2.7 to 8.6 | 2.7 to 8.6 | 2.7 to 8.6 |  |  | 
COc1ccc2c(c1)c(=O)c(C(=O)Nc1nc3ccccc3s1)cn2CCCCCC(=O)NO |  |  |  |  |  | IC50 (U-251): 0.6 to 16 µM; IC50 (HCT-116): 0.6 to 16 µM; IC50 (NCI-H460): 0.6 to 16 µM
CN1CCN(c2cc3c(cc2F)c(=O)c(-c2nc4s/c(=C\c5cccc(S(N)(=O)=O)c5)c(=O)n4n2)cn3C2CC2)CC1 |  |  | 0.3 to 8.4 | 0.3 to 8.4 | 0.3 to 8.4 | 
C[C@H]1COc2c(N3CCN(C)CC3)c(F)cc3c(=O)c(C(=O)OCc4cn(CCCCCCCC(=O)O)nn4)cn1c23 |  |  |  |  |  | IC50 (PC-3): 7.8 to 16.5 µM; IC50 (MCF7): 7.8 to 16.5 µM; IC50 (HeLa): 7.8 to 16.5 µM; IC50 (A549): 7.8 to 16.5 µM; IC50 (MCF-10A): > 100 µM; IC50 (HepG2): 7.8 to 16.5 µM
Nc1ccc(C2=NN=C3C(F)=Cc4c(n(C5CC5)cc(C(=O)O)c4=O)N3C2)cc1 |  |  |  |  |  | IC50 (SMMC-7721 [4]): 1 to 48.6 µM; IC50 (L1210 [5]): 1 to 48.6 µM; IC50 (HL-60 [6]): 1 to 48.6 µM
Cn1nc(-c2ccccc2)cc1NC(=O)c1cn(CCCCCC(=O)NO)c2ccccc2c1=O |  |  |  |  |  | IC50 (U-251): 0.6 to 16 µM; IC50 (HCT-116): 0.6 to 16 µM; IC50 (NCI-H460): 0.6 to 16 µM
CC(=O)n1nc2c(c1-c1cccs1)c(=O)[nH]c1ccccc12 |  |  |  |  |  | IC50 (U-251): 0.16 to 0.3 µM; IC50 (HCT-116): 0.16 to 0.3 µM; IC50 (NCI-H460): 0.16 to 0.3 µM
CCn1cc(-c2nnc(SC/C(=N/NC(N)=S)c3ccc(F)cc3)[nH]2)c(=O)c2cc(F)c(N3CCN(C)CC3)cc21 | 2.7 to 8.6 | 2.7 to 8.6 | 2.7 to 8.6 |  |  | 
COc1ccc(/C=c2\sc3nc(-c4cn(C5CC5)c5cc(N6CCN(C)CC6)c(F)cc5c4=O)nn3c2=O)cc1 |  |  | > 10 | > 10 | > 10 | 
O=C(CCCCCn1cc(C(=O)Nc2nc3ccccc3s2)c(=O)c2ccccc21)NO |  |  |  |  |  | IC50 (U-251): 0.6 to 1 µM; IC50 (HCT-116): 0.6 to 1 µM; IC50 (NCI-H460): 0.6 to 1 µM
CN1CCN(c2cc3c(cc2F)c(=O)c(-c2nc4s/c(=C\c5cccc(C(=O)O)c5)c(=O)n4n2)cn3C2CC2)CC1 |  |  | 0.3 to 8.4 | 0.3 to 8.4 | 0.3 to 8.4 | 
CN1CCN(c2cc3c(cc2F)c(=O)c(-c2nc4s/c(=C\c5cccc([N+](=O)[O-])c5)c(=O)n4n2)cn3C2CC2)CC1 |  |  | 0.3 to 8.4 | 0.3 to 8.4 | 0.3 to 8.4 | 
CN1CCN(c2cc3c(cc2F)c(=O)c(-c2nc4s/c(=C\c5ccc([N+](=O)[O-])cc5)c(=O)n4n2)cn3C2CC2)CC1 |  |  | 0.3 to 8.4 | 0.3 to 8.4 | 0.3 to 8.4 | 
CCn1cc(-c2nnc(SC/C(=N/NC(N)=S)c3ccc(OC)cc3)[nH]2)c(=O)c2cc(F)c(N3CCN(C)CC3)cc21 | 2.7 to 27.6 | 2.7 to 27.6 | 2.7 to 27.6 |  |  | 
